In US12642794B2, “Dose regimens for use of LY3154207 in the treatment of dopaminergic CNS disorders” (Eli Lilly and Company, priority 2018, dated 2026):
Entries after “also recorded” stand apart in the source; their conditions may differ.

Test system: sleep-deprived healthy male subjects
Assay: HBEB sleep latency study: multiple sleep latency test (MSLT), Karolinska Sleepiness Scale
Assay type: in vivo, human
Settings: for effect on wakefulness / sleep latency: single doses 15 mg to 75 mg
Description: FIG. 2: HBEB, a Phase 1, single-dose, randomized, placebo-controlled, 4-period, incomplete crossover study in sleep-deprived healthy male subjects (n=17). Effects of a single dose of LY3154207 on wakefulness as measured by the multiple sleep latency test (MSLT) in sleep deprived healthy male subjects. Sleep latency is time from start of MSLT to first detection of sleep (minutes). […] CI=confidence interval: LS-least squares: MSLT=multiple sleep latency test.
Dose dependent activating adverse events were also observed in a single ascending dose study. To determine the effects of a single dose of LY3154207 was studied on wakefulness as measured by the multiple sleep latency test (MSLT) in sleep deprived healthy male subjects. HBEB was a Phase 1, single-dose, randomized, placebo-controlled, 4-period, incomplete crossover study in sleep-deprived healthy male subjects (n=17). Subjects were randomized to receive a single dose of either placebo, LY3154207 15, 30, or 75 mg (double-blind), or modafinil (open-label control). In each period, subjects were sleep deprived for approximately 26 hours before dosing and approximately 12 hours post-dose. MSLT was conducted every 2 hours until 10 hours post-dose. Analysis based on mixed-model repeated measures included treatment, period, time, and the treatment-by-time interaction as fixed effects, and subject as a random effect: overall sleep latency was the average of the 4 post-dose sleep latencies. All subjects are randomized to receive 4 out of 5 available single dose treatments (15, 30, 75 mg LY3154207, placebo or modafanil 200 mg) with all subjects receiving placebo. The washout period is at least 7 days. MSLT is the primary assessment of wakefulness. Secondary outcomes include the Karolinska Sleepiness Scale (KSS), EEG and a simple reaction performance task. Blood samples are collected to measure plasma concentrations of LY3154207 and modafinil. Seventeen subjects are enrolled and received at least one dose of study drug with sixteen subjects completing all 4 periods of the trial. A dose dependent increase in MSLT is observed with least square means (95% CI) difference compared to placebo of 5.2 minutes (3.3,7.1) for 75 mg, 3.2 minutes (1.4, 5.1) for 30 mg, 1.3 minutes (−0.6, 3.2) for 15 mg, as shown in FIG. 2. […] PK is linear with a Cmax and t1/2 of approximately 3 and 9 hours across the dose range.

C[C@H]1c2cccc(CCC(C)(C)O)c2C[C@H](CO)N1C(=O)Cc1c(Cl)cccc1Cl [LY3154207]
MSLT sleep latency, least square means difference compared to placebo (single dose 15 mg): 1.3 min
MSLT sleep latency, least square means difference compared to placebo (single dose 30 mg): 3.2 min
MSLT sleep latency, least square means difference compared to placebo (single dose 75 mg): 5.2 min
effect on wakefulness / sleep latency: improves wakefulness in a dose dependent manner; also recorded: linear and dose-dependent effect on sleep latency
effect on wakefulness / sleep latency (listed as LY3144207): increases wakefulness
alertness measured by the Karolinska sleepiness scale (single doses 15, 30, 75 mg): dose-dependent increase in alertness
